From US10441565B2, “Conjugate of memantine and arctigenin, and composition and use thereof” (Shenzhen Qingyaqirui Bio-Tech Co., Ltd., priority 2015, dated 2019)
Structures can show the parent of a compound that is named as a salt.

Tests used:
[1] = tested on: APP/PS1 transgenic AD model mice; test: Morris water maze test, memory impairment of APP/PS1 transgenic AD model mice; type: in vivo; settings: 50 mg/kg/day by gastric gavage for 60 days, versus solvent-treated transgenic mice, FIG. 3
Description: In the present invention, conjugate A04 was administered by gastric gavage to APP/PS1 transgenic AD model mice, and then the effect of conjugate A04 on the memory impairment of transgenic AD model mice was detected through the classic Morris water maze test.
In this experiment, APP/PS1 double transgenic AD model mice, which developed Aβ deposition when they were about 6 months old, and had impairment on the space memory when they were about 7 months old, were employed. Therefore, in this experiment, the impairment on the space memory of the mice was further detected via the water maze test, and at the same time, whether conjugate A04 has a therapeutic or improving effect on the memory impairment was evaluated.
1) Identification of APP/PS1 double transgenic AD model mice: the mice's tail was snipped off, then the gene sequence of APP/PS1 in mice was identified by PCR. The wild type C57 (B6C3) mice were used as the negative control mice. […]
3) Morris water maze test: a mixture of water and fresh milk at a temperature of 19-20° C. was injected into a white round pool with a diameter of 120 centimeters daily in the test. […] The motion track and speed of the mice were automatically recorded by Anymaze and the matched camera. The average time of searching the platform in the four tests per day was recorded as the time for searching the platform on that day (latent period). […]

[2] = Pharmacokinetics in rats after gastric gavage, ATG concentration in plasma by LC-MS; type: in vivo, SD rats
Description: This test investigated the pharmacokinetics of arctigenin (ATG) and conjugate A04 in rats. The rats were administered by gastric gavage with ATG and A04, the whole blood sample was collected at various time points, the plasma was separated, and the concentration of ATG in plasma was determined by LC-MS.
Before the test, the rats were fasted for 12 hours, with free access to water, and were fed 2 hours after administration.
Blood sampling time points: 0.5, 1.0, 2.0, 4.0, 6.0, 8.0 and 12 h after administration by gastric gavage.
0.5 mL venous blood was taken from the posterior venous plexus of the rat's eyeball at the above set time points, put in a heparinized tube, centrifuged for 5 min at 11000 rpm to separate the plasma, and froze in a refrigerator at −20° C.
200 μL acetonitrile was added into 100 μL plasma samples, vortex mixed for 1 min, and centrifuged for 5 min at 11000 rpm; all the supernatant was taken out and put in a 10 mL test tube, dried in an airflow at 40° C., dissolved in 100 μL acetonitrile-water (1:9, v/v), and 10 μL was taken for UPLC/Q-TOF MS analysis.

[3] = tested on: drosophila Alzheimer's disease model wherein humanized A342 was overexpressed; test: Pavlovian olfactory memory test, rescue of memory impairment in drosophila AD model; type: in vivo
Description: A drosophila Alzheimer's disease model wherein humanized A342 was overexpressed (the model drosophila has significant learning and memory defects), was employed in the present invention to evaluate the effect of conjugate A04 in rescuing the learning and memory ability of the model drosophila.
Pavlovian olfactory memory platform was improved from the literatures (see Tully, T. et al., Classical conditioning and retention in normal and mutant Drosophila melanogaster. (1985) J. Comp. Physiol. A 157: 263-277; Tully, T. et al., Genetic dissection of consolidated memory in Drosophila. (1994) Cell 79: 35-47; Yin, J. C. et al., Induction of a dominant negative CREB transgene specifically blocks long-term memory in Drosophila. (1994) Cell 79: 49-58). The learning and memory test was performed in a behavior room having a constant temperature and humidity (25° C. and 70% relative humidity). The test comprises two stages:
training stage: about a hundred drosophilas were placed into a training tube covered with copper net inside, and the drosophilas sequentially smelt two odors (octanol (OCT) and methylcyclohexanol (MCH)). Each odor lasted for 1 minute, and after each of the odors, 45 seconds of fresh air were passed through. The drosophilas were subjected to 1 minute of electric shock only when it smelt the first odor. Such a set of procedures constituted a training cycle. In order to avoid the natural preference of the drosophilas for odors, one tube of the drosophilas smelt OCT first and then received an electric shock at each data point, while the other tube of the drosophilas smelt MCH first and then received an electric shock, and the mean value of the test results of the 2 tubes of drosophilas was a data point.
test stage: the drosophilas were immediately transferred to the selection point of a T-maze after the training, and then they were made to choose between the containers of the two odors within two minutes. After 2 minutes, the numbers of drosophilas in different containers were respectively counted, and the performance index (PI) was calculated. […]

CC12CC3CC(C)(C1)CC(N)(C3)C2 [memantine hydrochloride]
latent period in the Morris water maze test [1]: no significant change compared with that of the transgenic AD model mice

COc1cc(C[C@H]2C(=O)OC[C@@H]2Cc2ccc(OC)c(OC)c2)ccc1O [ATG, arctigenin]
oral bioavailability ([2]; according to further investigations of the present inventors): poor | ATG plasma concentration ([2]; rats, 20 mg/kg ATG by gastric gavage, lower detection limit 1.0 ng/ml): < 1.0 ng/mL

CC12CC3CC(C)(C1)CC(N)(C3)C2 [Mem, memantine]
performance index (PI) ([3]; AD drosophilas, 100 μM in 4% sucrose, 4 hours per day for 7 days, AD negative control PI 41, genetic control 19 higher): 55 | rescue effect ([3]; AD drosophilas, negative control group 0%, genetic control group 100%): more than 50%

COc1ccc(C[C@H]2COC(=O)[C@@H]2Cc2ccc(OC(=O)NCCNC(=O)[C@@H](N)COC(=O)NC34CC5CC(C)(CC(C)(C5)C3)C4)c(OC)c2)cc1OC [Conjugate A04]
rescue effect on the memory impairment of AD drosophilas compared with Mem ([3]; 100 μM, 7 days, FIG. 2): better rescue effect on the memory impairment of AD drosophilas than Mem | latent period in the Morris water maze test [1]: significantly shorter than that of the transgenic mice treated with the solvent
